pKi: −log10 of the molar value.
Experiments:
[1] = system: SHV-5 ec308; experiment: Aztreonam potentiation (MPC@4); format: cell-based; conditions: minimum BLI concentration inhibiting growth with 4 μg/mL aztreonam
[2] = system: KPC-2 KP1004; experiment: Aztreonam potentiation (MPC@4); format: cell-based; conditions: minimum BLI concentration inhibiting growth with 4 μg/mL aztreonam
[3] = system: ECL1002; experiment: Aztreonam potentiation (MPC@4); format: cell-based; conditions: minimum BLI concentration inhibiting growth with 4 μg/mL aztreonam
[4] = system: CTX-M-14 KP1005; format: cell-based
[5] = system: CTX-M-15 KP1009; format: cell-based
[6] = system: SHV-5 ec308; format: cell-based; conditions: minimum BLI concentration inhibiting growth with tigemonam at 4 μg/mL
[7] = system: ECL1002; format: cell-based; conditions: minimum BLI concentration inhibiting growth with tigemonam at 4 μg/mL
[8] = system: KP1004 KPC-2; experiment: Biapenem potentiation (MPC@1); format: cell-based; conditions: minimum BLI concentration inhibiting growth with 1 μg/mL biapenem
Method: (§1) Biapenem was present in the test medium at 1 μg/mL. […] Table 3 summarizes the BLI potency of biapenem potentiation (MPC@1) for two strains overexpressing class A (KPC) and class D (OXA-48) carbapenemases. Biapenem MIC for each strain is also shown.

[9] = system: OXA-48 KP1086; experiment: Biapenem potentiation (MPC@1); format: cell-based; conditions: minimum BLI concentration inhibiting growth with 1 μg/mL biapenem
Method: as §1

[10] = target: SHV-12 (Klebsiella pneumoniae, UniProt P0AD64, E235K/G234S/L31Q); experiment: Inhibition of nitrocefin cleavage by purified enzyme (Ki); format: biochemical; conditions: nitrocefin reporter substrate, 10 min preincubation; read-out: Ki (SHV-12, NCF)
Chain of SHV-12 (P0AD64 22-286 L31Q/G234S/E235K): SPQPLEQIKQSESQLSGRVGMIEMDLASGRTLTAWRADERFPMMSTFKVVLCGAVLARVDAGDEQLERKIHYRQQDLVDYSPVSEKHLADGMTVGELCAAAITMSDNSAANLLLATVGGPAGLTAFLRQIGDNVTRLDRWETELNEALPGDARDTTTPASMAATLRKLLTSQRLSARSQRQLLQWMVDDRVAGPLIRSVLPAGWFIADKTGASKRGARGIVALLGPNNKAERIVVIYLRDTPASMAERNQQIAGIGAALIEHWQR
Method: Purified enzymes were mixed with various concentrations of inhibitors in reaction buffer and incubated for 10 min at room temperature. Nitrocefin was added and substrate cleavage profiles were recorded at 490 nm every 10 sec for 10 min.

Row | Compound | AZT MPC4 SHV-5 ec308 [1] | AZT MPC4 KPC-2 KP1004 [2] | AZT MPC4 ECL1002 [3] | TIG MPC4 CTX-M-14 KP1005 [4] | TIG MPC4 CTX-M-15 KP1009 [5] | TIG MPC4 SHV-5 ec308 [6] | TIG MPC4 ECL1002 [7] | BPM MPC1 KP1004 KPC-2 [8] | BPM MPC1 OXA-48 KP1086 [9] | pKi [10]
1 | O=C(N[C@H]1Cc2cccc(C(=O)O)c2OB1O)c1cncnc1 [Compound 18, (R)-2-hydroxy-3-(pyrimidine-5-carboxamido)-3,4-dihydro-2H-benzo[e][1,2]oxaborinine-8-carboxylic acid] | Y (MIC of 1 μg/mL to 10 μg/mL) | Y (MIC of 1 μg/mL to 10 μg/mL) | Y (MIC of 1 μg/mL to 10 μg/mL) | Y (key: X: MIC of less than 1 μg/mL; Y: MIC of 1 μg/mL to 10 μg/mL; Z: MIC of greater than 10 μg/mL) | Y (key: X: MIC of less than 1 μg/mL; Y: MIC of 1 μg/mL to 10 μg/mL; Z: MIC of greater than 10 μg/mL) | Y (MIC of 1 μg/mL to 10 μg/mL) | Y (MIC of 1 μg/mL to 10 μg/mL) | Y (MIC of 1 μg/mL to 10 μg/mL) | Y (MIC of 1 μg/mL to 10 μg/mL) | > 9.00
2 | O=C(COCc1ccccc1)N[C@H]1Cc2cccc(C(=O)O)c2OB1O [CPD B, reference compound] | Y (MIC of 1 μg/mL to 10 μg/mL) | Z (MIC of greater than 10 μg/mL) | Z (MIC of greater than 10 μg/mL) | Z (key: X: MIC of less than 1 μg/mL; Y: MIC of 1 μg/mL to 10 μg/mL; Z: MIC of greater than 10 μg/mL) | Z (key: X: MIC of less than 1 μg/mL; Y: MIC of 1 μg/mL to 10 μg/mL; Z: MIC of greater than 10 μg/mL) | Y (MIC of 1 μg/mL to 10 μg/mL) | Y (MIC of 1 μg/mL to 10 μg/mL) | X (MIC of less than 1 μg/mL) | Z (MIC of greater than 10 μg/mL) | > 9.00
3 | NC(=O)N[C@H]1Cc2cccc(C(=O)O)c2OB1O [Compound 6, (R)-2-hydroxy-3-ureido-3,4-dihydro-2H-benzo[e][1,2]oxaborinine-8-carboxylic acid] | Y (MIC of 1 μg/mL to 10 μg/mL) | X (MIC of less than 1 μg/mL) | Z (MIC of greater than 10 μg/mL) | Z (key: X: MIC of less than 1 μg/mL; Y: MIC of 1 μg/mL to 10 μg/mL; Z: MIC of greater than 10 μg/mL) | Y (key: X: MIC of less than 1 μg/mL; Y: MIC of 1 μg/mL to 10 μg/mL; Z: MIC of greater than 10 μg/mL) | Z (MIC of greater than 10 μg/mL) | Y (MIC of 1 μg/mL to 10 μg/mL) | X (MIC of less than 1 μg/mL) | Y (MIC of 1 μg/mL to 10 μg/mL) | 8.00 to 9.00
4 | NC(=O)C(=O)N[C@H]1Cc2cccc(C(=O)O)c2OB1O [Compound 17, (R)-3-(2-amino-2-oxoacetamido)-2-hydroxy-3,4-dihydro-2H-benzo[e][1,2]oxaborinine-8-carboxylic acid] | X (MIC of less than 1 μg/mL) | Y (MIC of 1 μg/mL to 10 μg/mL) | Y (MIC of 1 μg/mL to 10 μg/mL) | Z (key: X: MIC of less than 1 μg/mL; Y: MIC of 1 μg/mL to 10 μg/mL; Z: MIC of greater than 10 μg/mL) | Y (key: X: MIC of less than 1 μg/mL; Y: MIC of 1 μg/mL to 10 μg/mL; Z: MIC of greater than 10 μg/mL) | Y (MIC of 1 μg/mL to 10 μg/mL) | Y (MIC of 1 μg/mL to 10 μg/mL) | X (MIC of less than 1 μg/mL) | Y (MIC of 1 μg/mL to 10 μg/mL) | 8.00 to 9.00
5 | O=C(N[C@H]1Cc2cccc(C(=O)O)c2OB1O)c1cncc(F)c1 [Compound 14, (R)-3-(5-fluoronicotinamido)-2-hydroxy-3,4-dihydro-2H-benzo[e][1,2]oxaborinine-8-carboxylic acid] | Y (MIC of 1 μg/mL to 10 μg/mL) | Y (MIC of 1 μg/mL to 10 μg/mL) | Y (MIC of 1 μg/mL to 10 μg/mL) | Y (key: X: MIC of less than 1 μg/mL; Y: MIC of 1 μg/mL to 10 μg/mL; Z: MIC of greater than 10 μg/mL) | Y (key: X: MIC of less than 1 μg/mL; Y: MIC of 1 μg/mL to 10 μg/mL; Z: MIC of greater than 10 μg/mL) | Y (MIC of 1 μg/mL to 10 μg/mL) | Y (MIC of 1 μg/mL to 10 μg/mL) | X (MIC of less than 1 μg/mL) | Y (MIC of 1 μg/mL to 10 μg/mL) | > 9.00
